Laboratory results as given in patent US20190105367A1, “ANTIMICROBIAL 4-OXOQUINOLIZINES” (Emergent Product Development Gaithersburg Inc., priority 2011, published 2019).
In brackets after ≈: the same amount, converted by molar mass. Read-outs that look alike come from different tables or passages of the source.

Assays:
[1] = test system: strains of A. baumannii and one strain of Acinetobacter sp.; test: MIC with sub-inhibitory concentrations (0.25x MIC) of polymyxin B, panel of Acinetobacter strains (Example 4); assay type: cell-based
[2] = test system: A. baumannii ATCC 19606; test: MIC without and with sub-inhibitory polymyxin B (Example 4); assay type: cell-based, Acinetobacter baumannii; conditions: A. baumannii ATCC 19606
[3] = test system: A. baumannii J2; test: as above; assay type: cell-based, Acinetobacter baumannii; conditions: for MIC without PB/MIC + PB: A. baumannii J2; for MIC: Acinetobacter baumannii
[4] = test system: A. baumannii J2; test: Preliminary MBC without and with sub-inhibitory polymyxin B (Example 4); assay type: cell-based, Acinetobacter baumannii; conditions: Acinetobacter baumannii, preliminary MBC
[5] = test system: Acinetobacter sp. (H064200250); test: MIC without and with sub-inhibitory polymyxin B (Example 4); assay type: cell-based; conditions: for MIC: Acinetobacter
[6] = test system: Acinetobacter sp. (H064200250); test: Preliminary MBC without and with sub-inhibitory polymyxin B (Example 4); assay type: cell-based; conditions: Acinetobacter, preliminary MBC
Procedure: (§1) The plates were incubated for 18-20 hours at 37° C. The MBC was read as the lowest concentration at which colony growth was ca. 90% less than the positive control (i.e. usually where single colonies or no colonies were observed).

[7] = test system: A. baumannii A329; test: as above; assay type: cell-based, Acinetobacter baumannii; conditions: Acinetobacter baumannii, A329, A. baumannii A329, +0.06 μg/ml PB, 2nd experiment, read-out: MBC
[8] = test system: A. baumannii A387; test: MIC without and with sub-inhibitory polymyxin B (Example 4); assay type: cell-based, Acinetobacter baumannii; conditions: for MIC without PB/MIC + PB: A. baumannii A387; for MIC: Acinetobacter baumannii
[9] = test system: A. baumannii A387; test: Preliminary MBC without and with sub-inhibitory polymyxin B (Example 4); assay type: cell-based, Acinetobacter baumannii; conditions: Acinetobacter baumannii
[10] = test system: A. baumannii A390; test: MIC without and with sub-inhibitory polymyxin B (Example 4); assay type: cell-based, Acinetobacter baumannii; conditions: +0.06 μg/ml PB, 2nd experiment
[11] = test system: A. baumannii A14; test: Preliminary MBC without and with sub-inhibitory polymyxin B (Example 4); assay type: cell-based, Acinetobacter baumannii; conditions: A. baumannii A14, +0.06 μg/ml PB, 2nd experiment
Procedure: as §1

[12] = test system: A. baumannii A390; test: as above; assay type: cell-based, Acinetobacter baumannii; conditions: Acinetobacter baumannii, A390, A. baumannii A390, +0.06 μg/ml PB, 2nd experiment, read-out: MBC
Procedure: as §1

[13] = test system: A. baumannii A473; test: as above; assay type: cell-based, Acinetobacter baumannii; conditions: Acinetobacter baumannii, A473, A. baumannii A473, +0.06 μg/ml PB, 2nd experiment, read-out: MBC
Procedure: as §1

[14] = test system: A. baumannii NCTC 13301; test: as above; assay type: cell-based, Acinetobacter baumannii; conditions: Acinetobacter baumannii
Procedure: as §1

[15] = test system: A. baumannii A401; test: MIC without and with sub-inhibitory polymyxin B (Example 4); assay type: cell-based, Acinetobacter baumannii; conditions: for MIC: Acinetobacter baumannii
[16] = test system: A. baumannii A401; test: Preliminary MBC without and with sub-inhibitory polymyxin B (Example 4); assay type: cell-based, Acinetobacter baumannii; conditions: Acinetobacter baumannii
[17] = test system: A. baumannii A472; test: MIC without and with sub-inhibitory polymyxin B (Example 4); assay type: cell-based, Acinetobacter baumannii; conditions: for MIC: Acinetobacter baumannii
[18] = test system: A. baumannii A472; test: Preliminary MBC without and with sub-inhibitory polymyxin B (Example 4); assay type: cell-based, Acinetobacter baumannii; conditions: Acinetobacter baumannii, preliminary MBC
[19] = test system: A. baumannii A473; test: MIC without and with sub-inhibitory polymyxin B (Example 4); assay type: cell-based, Acinetobacter baumannii; conditions: A. baumannii A473; +0.06 μg/ml PB; 2nd experiment
[20] = test system: A. baumannii A489; test: as above; assay type: cell-based, Acinetobacter baumannii; conditions: for MIC without PB/MIC + PB: A. baumannii A489; for MIC: Acinetobacter baumannii
[21] = test system: A. baumannii NCTC 13301; test: as above; assay type: cell-based, Acinetobacter baumannii
[22] = test system: A. baumannii NCTC 13301; test: as above; assay type: cell-based, Acinetobacter baumannii; conditions: +[…] PB, 2nd experiment
[23] = test system: A. baumannii A14; test: as above; assay type: cell-based, Acinetobacter baumannii; conditions: 1st experiment
[24] = ratio, PB 0.06 μg/ml, 1st experiment

SMILES: Cc1c(-c2cc(F)c(N)cc2F)ccn2c(=O)c(C(=O)O)cc(C3CC3)c12 [Compound 2, 8-(4-amino-2,5-difluorophenyl)-1-cyclopropyl-9-methyl-4-oxo-4H-quinolizine-3-carboxylic acid]
- MIC range with PB (0.25x MIC) Oct. 1, 2008 n = 8 ([1]; 1st experiment, […] polymyxin B, ATCC 19606, A329, A390 and A473 not taken): ≤0.03 to 1 µg/mL
- MIC range with PB (0.25x MIC) Oct. 14, 2008 n = 11 ([1]; 2nd experiment, 0.06 μg/ml polymyxin B, all strains except the ATCC strain): ≤0.03 to 0.5 µg/mL
- MIC without PB/MIC + PB ([2]; +0.06 μg/ml PB, 2nd experiment): ≥4
- MIC without PB/MIC + PB [2, 24]: ≥1
- MIC without PB/MIC + PB ([3]; +[…] PB, 2nd experiment): ≥128
- MIC without PB/MIC + PB ([3]; ratio, PB […], 1st experiment): ≥128
- MIC ([3]; J2, A. baumannii J2, +[…] PB, 2nd experiment, read-out: MIC): ≤ 0.03 µg/mL
- MIC ([3]; J2, read-out: MIC +[…] PB, A. baumannii J2, +[…] polymyxin B, 1st experiment): ≤ 0.03 µg/mL
- MBC ([4]; J2, A. baumannii J2, +[…] PB, 2nd experiment, read-out: MBC): ≤ 0.03 µg/mL
- MBC ([4]; J2, read-out: MBC +[…] PB, A. baumannii J2, +[…] polymyxin B, 1st experiment): ≤ 0.03 µg/mL
- MIC without PB/MIC + PB ([5]; Acinetobacter spp. H064200250 (OXA51), +[…] PB, 2nd experiment): ≥128
- MIC without PB/MIC + PB ([5]; Acinetobacter spp. H064200250, ratio, PB […], 1st experiment): ≥128
- MIC ([5]; Acinetobacter spp. H064200250 (OXA51), +[…] PB, 2nd experiment, read-out: MIC): ≤ 0.03 µg/mL
- MIC ([5]; read-out: MIC +[…] PB, Acinetobacter spp. H064200250, +[…] polymyxin B, 1st experiment): ≤ 0.03 µg/mL
- MBC ([6]; Acinetobacter spp. H064200250 (OXA51), +[…] PB, 2nd experiment, read-out: MBC): 0.06 µg/mL (≈ 0.162 µM)
- MBC ([6]; read-out: MBC +[…] PB, Acinetobacter spp. H064200250, +[…] polymyxin B, 1st experiment): ≤ 0.03 µg/mL
- MBC [7]: 0.5 µg/mL (≈ 1.35 µM)
- MIC without PB/MIC + PB ([8]; +0.06 μg/ml PB, 2nd experiment): ≥32
- MIC without PB/MIC + PB [8, 24]: ≥16
- MIC ([8]; A387, A. baumannii A387, +0.06 μg/ml PB, 2nd experiment, read-out: MIC): ≤ 0.03 µg/mL
- MIC ([8]; A387, read-out: MIC +0.06 μg/ml PB, A. baumannii A387, +0.06 μg/ml polymyxin B, 1st experiment): ≤ 0.03 µg/mL
- MBC ([9]; A387, A. baumannii A387, +0.06 μg/ml PB, 2nd experiment, read-out: MBC): ≤ 0.03 µg/mL
- MBC ([9]; A387, read-out: MBC +0.06 μg/ml PB, A. baumannii A387, +0.06 μg/ml polymyxin B, 1st experiment): ≤ 0.03 µg/mL
- MIC without PB/MIC + PB ([10]; A. baumannii A390): ≥512
- MIC ([10]; Acinetobacter baumannii, A390, A. baumannii A390, read-out: MIC): ≤ 0.03 µg/mL
- MBC [11]: 0.06 µg/mL (≈ 0.162 µM)
- MBC [12]: 0.06 µg/mL (≈ 0.162 µM)
- MBC [13]: 0.125 µg/mL (≈ 0.338 µM)
- MBC ([14]; NCTC13301, A. baumannii NCTC 13301, +[…] PB, preliminary MBC, 2nd experiment, read-out: MBC): ≤ 0.03 µg/mL
- MBC ([14]; NCTC13301, read-out: MBC +[…] PB): ≤ 0.03 µg/mL
- MIC without PB/MIC + PB ([15]; A baumannii A 401, ratio, PB 0.06 μg/ml, 1st experiment): ≥128
- MIC ([15]; A401, A baumannii A 401, +0.06 μg/ml PB, 2nd experiment, read-out: MIC): ≤ 0.03 µg/mL
- MIC ([15]; A401, read-out: MIC +0.06 μg/ml PB, A baumannii A 401, +0.06 μg/ml polymyxin B, 1st experiment): ≤ 0.03 µg/mL
- MBC ([16]; A401, A baumannii A 401, +0.06 μg/ml PB, 2nd experiment, read-out: MBC): ≤ 0.03 µg/mL
- MBC ([16]; A401, read-out: MBC +0.06 μg/ml PB, A baumannii A 401, +0.06 μg/ml polymyxin B, 1st experiment): ≤ 0.03 µg/mL
- MIC without PB/MIC + PB ([17]; A. baumannii A472, ratio, PB […], 1st experiment): ≥128
- MIC ([17]; A472, A. baumannii A472, +[…] PB, 2nd experiment, read-out: MIC): ≤ 0.03 µg/mL
- MIC ([17]; A472, read-out: MIC +[…] PB, A. baumannii A472, +[…] polymyxin B, 1st experiment): ≤ 0.03 µg/mL
- MBC ([18]; A472, A. baumannii A472, +[…] PB, 2nd experiment, read-out: MBC): ≤ 0.03 µg/mL
- MBC ([18]; A472, read-out: MBC +[…] PB, A. baumannii A472, +[…] polymyxin B, 1st experiment): ≤ 0.03 µg/mL
- MIC without PB/MIC + PB [19]: 64
- MIC without PB/MIC + PB ([20]; +[…] PB, 2nd experiment): ≥128
- MIC without PB/MIC + PB ([20]; ratio, PB […], 1st experiment): ≥64
- MIC ([20]; A489, A. baumannii A489, +[…] PB, 2nd experiment, read-out: MIC): ≤ 0.03 µg/mL
- MIC ([20]; A489, read-out: MIC +[…] PB, A. baumannii A489, +[…] polymyxin B, 1st experiment): ≤ 0.03 µg/mL
- MIC without PB/MIC + PB ([21]; A. baumannii NCTC 13301, ratio, PB […], 1st experiment): ≥512
- MIC ([21]; Acinetobacter baumannii, NCTC13301, read-out: MIC +[…] PB): ≤ 0.03 µg/mL
- MIC without PB/MIC + PB ([22]; A. baumannii NCTC 13301): ≥512
- MIC ([22]; Acinetobacter baumannii, NCTC13301, A. baumannii NCTC 13301, read-out: MIC): ≤ 0.03 µg/mL
- MIC +0.06 μg/ml PB ([23]; +0.06 μg/ml polymyxin B): ≤0.03 µg/mL
- MIC ([23]; Acinetobacter baumannii, 24 h, without polymyxin B, read-out: MIC without PB): 16 µg/mL (≈ 43.2 µM)
- MIC without PB/MIC + PB ([23]; ratio, PB 0.06 μg/ml): ≥512
